In the NIST ThermoML archive (doi:10.1021/je050060q):

Assay: xn = mol fraction of the nth substance listed
Conditions: 101.3 kPa, Liquid; for mass density: Pycnometric method

CCCCCCCCCCCCCCCC [hexadecane] + CCCCCC
Conditions | mass density [kg/m3] | speed of sound [m/s]
293.15 K, x2 = 0.1 | 768.1 | 1341
293.15 K, x2 = 0.2 | 762.36 | 1327
293.15 K, x2 = 0.3 | 756.02 | 1314
293.15 K, x2 = 0.4 | 748.67 | 1297
293.15 K, x2 = 0.5 | 740.14 | 1277
293.15 K, x2 = 0.6 | 729.79 | 1254
293.15 K, x2 = 0.7 | 717.46 | 1228
293.15 K, x2 = 0.8 | 702.3 | 1196
293.15 K, x2 = 0.9 | 683.23 | 1151
298.15 K, x2 = 0.1 | 764.7 | 1322
298.15 K, x2 = 0.2 | 758.88 | 1308
298.15 K, x2 = 0.3 | 752.56 | 1295
298.15 K, x2 = 0.4 | 745.03 | 1277
298.15 K, x2 = 0.5 | 736.52 | 1257
298.15 K, x2 = 0.6 | 726.08 | 1234
298.15 K, x2 = 0.7 | 713.68 | 1207
298.15 K, x2 = 0.8 | 698.4 | 1175
298.15 K, x2 = 0.9 | 679.04 | 1129
303.15 K, x2 = 0.1 | 761.25 | 1304
303.15 K, x2 = 0.2 | 755.4 | 1289
303.15 K, x2 = 0.3 | 749.09 | 1275
303.15 K, x2 = 0.4 | 741.49 | 1258
303.15 K, x2 = 0.5 | 732.9 | 1237
303.15 K, x2 = 0.6 | 722.32 | 1215
303.15 K, x2 = 0.7 | 709.86 | 1187
303.15 K, x2 = 0.8 | 694.47 | 1154
303.15 K, x2 = 0.9 | 674.8 | 1108
308.15 K, x2 = 0.1 | 757.78 | 1285
308.15 K, x2 = 0.2 | 751.9 | 1270
308.15 K, x2 = 0.3 | 745.61 | 1256
308.15 K, x2 = 0.4 | 737.93 | 1238
308.15 K, x2 = 0.5 | 729.25 | 1217
308.15 K, x2 = 0.6 | 718.63 | 1195
308.15 K, x2 = 0.7 | 706.03 | 1167
308.15 K, x2 = 0.8 | 690.5 | 1133
308.15 K, x2 = 0.9 | 670.53 | 1086
313.15 K, x2 = 0.1 | 754.31 | 1266
313.15 K, x2 = 0.2 | 748.41 | 1251
313.15 K, x2 = 0.3 | 741.92 | 1237
313.15 K, x2 = 0.4 | 734.37 | 1219
313.15 K, x2 = 0.5 | 725.59 | 1198
313.15 K, x2 = 0.6 | 714.88 | 1175
313.15 K, x2 = 0.7 | 702.18 | 1146
313.15 K, x2 = 0.8 | 686.49 | 1112
313.15 K, x2 = 0.9 | 666.22 | 1065
318.15 K, x2 = 0.1 | 750.84 | 1248
318.15 K, x2 = 0.2 | 744.91 | 1232
318.15 K, x2 = 0.3 | 738.42 | 1219
318.15 K, x2 = 0.4 | 730.8 | 1200
318.15 K, x2 = 0.5 | 721.92 | 1178
318.15 K, x2 = 0.6 | 711.12 | 1156
318.15 K, x2 = 0.7 | 698.3 | 1126
318.15 K, x2 = 0.8 | 682.45 | 1091
318.15 K, x2 = 0.9 | 661.87 | 1044
323.15 K, x2 = 0.1 | 747.36 | 1230
323.15 K, x2 = 0.2 | 741.4 | 1214
323.15 K, x2 = 0.3 | 734.92 | 1200
323.15 K, x2 = 0.4 | 727.21 | 1181
323.15 K, x2 = 0.5 | 718.23 | 1159
323.15 K, x2 = 0.6 | 707.34 | 1136
323.15 K, x2 = 0.7 | 694.38 | 1107
323.15 K, x2 = 0.8 | 678.36 | 1071
323.15 K, x2 = 0.9 | 657.47 | 1023
328.15 K, x2 = 0.1 | 743.88 | 1211
328.15 K, x2 = 0.2 | 737.89 | 1196
328.15 K, x2 = 0.3 | 731.41 | 1182
328.15 K, x2 = 0.4 | 723.62 | 1163
328.15 K, x2 = 0.5 | 714.52 | 1140
328.15 K, x2 = 0.6 | 703.55 | 1117
328.15 K, x2 = 0.7 | 690.44 | 1087
328.15 K, x2 = 0.8 | 674.25 | 1050
328.15 K, x2 = 0.9 | 653.04 | 1002
333.15 K, x2 = 0.1 | 740.37 | 1193
333.15 K, x2 = 0.2 | 734.36 | 1177
333.15 K, x2 = 0.3 | 727.88 | 1163
333.15 K, x2 = 0.4 | 720.01 | 1144
333.15 K, x2 = 0.5 | 710.8 | 1122
333.15 K, x2 = 0.6 | 699.74 | 1098
333.15 K, x2 = 0.7 | 686.47 | 1067
333.15 K, x2 = 0.8 | 670.09 | 1030
333.15 K, x2 = 0.9 | 648.56 | 981
338.15 K, x2 = 0.1 | – | 1176
338.15 K, x2 = 0.2 | – | 1160
338.15 K, x2 = 0.3 | – | 1145
338.15 K, x2 = 0.4 | – | 1126
338.15 K, x2 = 0.5 | – | 1103
338.15 K, x2 = 0.6 | – | 1079
338.15 K, x2 = 0.7 | – | 1048
338.15 K, x2 = 0.8 | – | 1010
338.15 K, x2 = 0.9 | – | 960
343.15 K, x2 = 0.1 | – | 1158
343.15 K, x2 = 0.2 | – | 1142
343.15 K, x2 = 0.3 | – | 1127
343.15 K, x2 = 0.4 | – | 1108
343.15 K, x2 = 0.5 | – | 1084
343.15 K, x2 = 0.6 | – | 1060
343.15 K, x2 = 0.7 | – | 1029
343.15 K, x2 = 0.8 | – | 990
343.15 K, x2 = 0.9 | – | 939
348.15 K, x2 = 0.1 | – | 1140
348.15 K, x2 = 0.2 | – | 1124
348.15 K, x2 = 0.3 | – | 1109
348.15 K, x2 = 0.4 | – | 1089
348.15 K, x2 = 0.5 | – | 1066
348.15 K, x2 = 0.6 | – | 1042
348.15 K, x2 = 0.7 | – | 1010
348.15 K, x2 = 0.8 | – | 971
348.15 K, x2 = 0.9 | – | 918
353.15 K, x2 = 0.1 | – | 1123
353.15 K, x2 = 0.2 | – | 1106
353.15 K, x2 = 0.3 | – | 1092
353.15 K, x2 = 0.4 | – | 1072
353.15 K, x2 = 0.5 | – | 1048
353.15 K, x2 = 0.6 | – | 1023
353.15 K, x2 = 0.7 | – | 991
353.15 K, x2 = 0.8 | – | 951
353.15 K, x2 = 0.9 | – | 898
358.15 K, x2 = 0.1 | – | 1106
358.15 K, x2 = 0.2 | – | 1089
358.15 K, x2 = 0.3 | – | 1074
358.15 K, x2 = 0.4 | – | 1054
358.15 K, x2 = 0.5 | – | 1030
358.15 K, x2 = 0.6 | – | 1005
358.15 K, x2 = 0.7 | – | 972
358.15 K, x2 = 0.8 | – | 932
358.15 K, x2 = 0.9 | – | 877
363.15 K, x2 = 0.1 | – | 1088
363.15 K, x2 = 0.2 | – | 1071
363.15 K, x2 = 0.3 | – | 1057
363.15 K, x2 = 0.4 | – | 1036
363.15 K, x2 = 0.5 | – | 1012
363.15 K, x2 = 0.6 | – | 986
363.15 K, x2 = 0.7 | – | 953
363.15 K, x2 = 0.8 | – | 912
363.15 K, x2 = 0.9 | – | 857
368.15 K, x2 = 0.1 | – | 1072
368.15 K, x2 = 0.2 | – | 1054
368.15 K, x2 = 0.3 | – | 1039
368.15 K, x2 = 0.4 | – | 1019
368.15 K, x2 = 0.5 | – | 995
368.15 K, x2 = 0.6 | – | 968
368.15 K, x2 = 0.7 | – | 935
368.15 K, x2 = 0.8 | – | 893
368.15 K, x2 = 0.9 | – | 837
373.15 K, x2 = 0.1 | – | 1055
373.15 K, x2 = 0.2 | – | 1037
373.15 K, x2 = 0.3 | – | 1022
373.15 K, x2 = 0.4 | – | 1002
373.15 K, x2 = 0.5 | – | 977
373.15 K, x2 = 0.6 | – | 950
373.15 K, x2 = 0.7 | – | 916
373.15 K, x2 = 0.8 | – | 874
373.15 K, x2 = 0.9 | – | 816
